Source: article PMC11881906, “Development of xanthone derivatives as effective broad-spectrum antimicrobials: Disrupting cell wall and inhibiting DNA synthesis” (Science Advances, 2025)
In brackets after ≈: the same amount, converted by molar mass.

Key:
[1] = CCK-8 cytotoxicity assay; type: cell-based; details: mouse, NCTC clone 929 fibroblast cells, 25 μg/ml, read-out: %Viable cells NCTC clone 929 cells
Method: Cytotoxicity of the compound tested was assessed by CCK-8 assays as previously described ([71]). […] Following a 24-hour incubation, 10 μl of CCK-8 reagent was added to each well and incubated for 1 hour. The absorbance at 450 nm was measured by a microplate reader. All measurements were repeated three times with duplicates each time.

[2] = test system: MRSA NCTC 10442; assay: MIC, broth microdilution; type: cell-based; details: Staphylococcus aureus; 24-hour incubation, MHB; read-out: MIC90 MRSA NCTC 10442
Method: (§1) MIC was determined using the broth microdilution method in accordance with Clinical and Laboratory Standards Institute guidelines. All compounds were dissolved in dimethyl sulfoxide (DMSO; final DMSO concentration of less than 0.5%) and sterile double-distilled water and then diluted with Mueller-Hinton broth (MHB). Each compound’s stock solution was serially twofold diluted, resulting in concentrations ranging from 0.39 to 100 μg/ml, and thereafter added to sterile 96-well plates. All bacterial cell suspensions were adjusted in MHB to attain a starting inoculum of 1 × 10^6 cells/ml. A total of 100 μl volume of the bacterial suspension was then added to each well. Following a 24-hour incubation at 37°C, the optical density at 600 nm (OD600) was confirmed by measuring absorbance at 600 nm with a BioTek microplate reader. […] All measurements were repeated three times with duplicates each time.

[3] = test system: A. baumannii R2889; assay: MIC, broth microdilution; type: cell-based; details: Acinetobacter baumannii, 24-hour incubation, MHB
Method: as §1

[4] = test system: MRSA N315; assay: MIC, broth microdilution; type: cell-based; details: Staphylococcus aureus, 24-hour incubation, MHB, read-out: MIC90 MRSA N315
Method: as §1

[5] = test system: S. aureus ATCC 29213; assay: MIC, broth microdilution; type: cell-based; details: Staphylococcus aureus, ATCC29213, 24 h, 24-hour incubation, MHB; read-out: MIC90 S. aureus ATCC 29213
Method: as §1

[6] = test system: K. pneumonia ATCC 10031; assay: MIC, broth microdilution; type: cell-based; details: Klebsiella pneumoniae, ATCC10031; 24-hour incubation, MHB
Method: as §1

[7] = test system: P. aeruginosa ATCC 9027; assay: MIC, broth microdilution; type: cell-based; details: Pseudomonas aeruginosa, ATCC9027; 24-hour incubation, MHB
Method: as §1

[8] = test system: K. pneumonia ATCC 14581; assay: MIC, broth microdilution; type: cell-based; details: Klebsiella pneumoniae, ATCC14581; 24-hour incubation, MHB
Method: as §1

[9] = test system: A. baumannii ATCC 17978; assay: MIC, broth microdilution; type: cell-based; details: Acinetobacter baumannii, ATCC17978; 24-hour incubation, MHB
Method: as §1

[10] = test system: E. coli ATCC 25922; assay: MIC, broth microdilution; type: cell-based, Escherichia coli; details: 24-hour incubation, MHB
Method: as §1

[11] = test system: rabbit erythrocytes; assay: Hemolysis assay; type: cell-based; details: concentration causing 50% hemolysis of red blood cells; 1 hour, 37°C
Method: The hemolytic activity of antimicrobial agents was investigated as previously described ([70]). Briefly, the rabbit erythrocytes were centrifuged at 2500 rpm for 3 min before being washed twice with sterile phosphate-buffered saline (PBS) (pH 7.4). Subsequently, the erythrocytes were diluted with PBS to a final concentration of 8% (v/v). The DMSO-dissolved compounds were twofold serially diluted in PBS to achieve a final concentration with DMSO less than 0.5%. […] Sterile PBS and 0.2% Triton X-100 were used as negative and positive controls, respectively. After 1 hour of incubation at 37°C, the tested samples were centrifuged at 2500 rpm for 5 min, and aliquots of the supernatant were added to 96-well microplates. The hemoglobin release was determined by measuring the absorbance at 576 nm using a BioTek multimode reader. The percentage of hemolytic activity was calculated using the following formula: Hemolysis rate (%) = [OD576 (compound) − OD576 (PBS)]/[OD576 (Triton X-100) − OD576 (PBS)] × 100. All measurements were repeated three times with duplicates each time.

[12] = test system: K. pneumoniae; assay: MIC, summary over K. pneumoniae strains; type: cell-based; details: Klebsiella pneumoniae, two strains; read-out: MICs against K. pneumoniae
Method: as §1

[13] = test system: Gram-positive bacteria; assay: MIC, summary over Gram-positive strains; type: cell-based; details: read-out: MICs against Gram-positive bacteria, three Gram-positive strains
Method: as §1

[14] = test system: P. aeruginosa ATCC 9027; assay: Murine corneal infection model; type: in vivo, mice; details: topical, 2 days; XT17 5 mg/ml, gatifloxacin 3 mg/ml; vs 5% glucose control
Text: Female C57BL/6 mice (average weight, 20 g) were used for the in vivo efficacy experiments. Mice were housed in a specific pathogen–free facility on a 12-hour light-dark cycle, under the condition with ad libitum access to irradiation sterilized rodent diet and aseptic water. […]. These in vivo experiments were approved by the Experimental Animal Center of South China Agricultural University and conducted in accordance with the policies of the Ministry of Health of China.
The in vivo efficacy of compound XT17 was investigated in a murine corneal infection model. Before infection, the mice were immunosuppressed with three intraperitoneal injections of cyclophosphamide (100 mg/kg) over 5 days. After anesthesia with 2.5% avertin (500 mg/kg, ip), the left corneas of mice were scratched with 15 μl of S. aureus ATCC 29213 or P. aeruginosa ATCC 9027 (approximately 5 × 10^7 CFU/ml). Following 1 day of infection, the infected mice were randomly assigned into […] (n = 5) and subsequently administered with 0.5% compound XT17, 5% glucose solution, 5% vancomycin, or 0.3% gatifloxacin topically. S. aureus–caused murine corneal infections were treated four times a day for three consecutive days. Only 2 days of treatment were given for P. aeruginosa–caused murine corneal infections. On the first day, the drug was administered every 20 min for 1 hour and then three times at 2-hour intervals on the second day. The mice were given a 5% glucose solution as a negative control in the absence of any antimicrobial agent treatment. The infected corneas were collected after the mice were euthanized, and the number of viable bacteria was counted using MHA plates.

[15] = test system: S. aureus ATCC 29213; assay: Serial passage resistance induction; type: cell-based, Staphylococcus aureus; details: 20-day passages at 0.5× MIC
Method: The bacteria were grown in a medium containing 0.5× MIC of each compound to prepare the bacterial suspension for the next MIC determination. The MICs were then recorded after incubation at 37°C for 24 hours. Daily passages were continued until the initial MIC increased by more than fourfold. The stability of acquired resistance was investigated by MIC determination and repeated for 20 days.

## CC(C)=CCOc1cc(OCCCCCCNC(=N)N)cc2oc3cc(OCCCCCCNC(=N)N)ccc3c(=O)c12 [XT44]
[1]
  viability at 24 h, 25 μg/ml: 4.87 ± 0.4%
[2]
  MIC90: 0.098 µg/mL (≈ 0.165 µM)
[3]
  MIC90: 12.5 µg/mL (≈ 21 µM)
[4]
  MIC90: 0.098 µg/mL (≈ 0.165 µM)
[5]
  MIC90: 0.098 µg/mL (≈ 0.165 µM)
[6]
  MIC90: 0.78 µg/mL (≈ 1.31 µM)
[7]
  MIC90: 25 µg/mL (≈ 42 µM)
[8]
  MIC90: 0.78 µg/mL (≈ 1.31 µM)
[9]
  MIC90: 6.25 µg/mL (≈ 10.5 µM)
[10]
  MIC90 E. coli ATCC 25922: 1.56 µg/mL (≈ 2.62 µM)
[10]; Escherichia coli, ATCC25922, 24 h, read-out: MIC90 E. coli ATCC 25922
  MIC90: 1.56 to 12.5 µg/mL (≈ 2.62 to 21 µM)
[11]
  HC50: >200 µg/mL
[12]
  MIC: 0.78 µg/mL (≈ 1.31 µM)
[13]
  MIC: 0.098 to 1.56 µg/mL (≈ 0.165 to 2.62 µM)

## COc1c(N2CCNC(C)C2)c(F)cc2c(=O)c(C(=O)O)cn(C3CC3)c12 (stereo not shown) [gatifloxacin, reference compound]
[14]
  log reduction in viable bacterial colonies in the infected corneas: 3.08 log

## CCn1cc(C(=O)O)c(=O)c2cc(F)c(N3CCNCC3)cc21 [norfloxacin, reference compound]
[15]
  increase in MIC values during passages: approximately 16 fold
